Values quoted from earlier work as cited in patent US20250352557A1, “COMPOSITIONS FOR PERITONEAL DRUG DELIVERY AND METHODS OF USE THEREOF” (Viramal Limited, priority 2023, published 2025).

How the values were obtained:
[1] = vaginal administration; previously refractory patients
[2] = not given; remark: listed apart in the source

SMILES	Average consumption of pain relief tablets (e.g., naproxen) reduced by [1] [%]	Patient satisfaction [1] [%]	Bioavailability with intake of foods high in fat (oral)	Time at which peak-plasma concentrations are reached (oral (Danatrol form)) [h]	Peak-plasma concentrations (oral (Danatrol form), absorbed from the gastrointestinal tract) [ng/mL]	Log P [2]
C#C[C@]1(O)CC[C@H]2[C@@H]3CCC4=Cc5oncc5C[C@]4(C)[C@H]3CC[C@@]21C [Danazol, 17α-Pregna-2,4-dien-20-yno [2,3-d]-isoxazol-17-ol]	60	80	tripled	2 to 3	50 to 80	–
CC(=O)[C@H]1CC[C@H]2[C@@H]3CCC4=CC(=O)CC[C@]4(C)[C@H]3CC[C@]12C [progesterone]	–	–	–	–	–	3.82
